{"source": "patent US20250235453A1", "about": "“TRIAZOLOPYRIDAZINE COMPOUNDS USEFUL AS RAC1 INHIBITORS” (Revere Pharmaceuticals, priority 2021, published 2025)", "data": [{"tested_on": "not given", "experiment": "not given", "settings": "in vivo, po; cited from earlier work", "values": [{"smiles": "FC(F)(F)c1ccc2c(SCCCCCCn3cnc(CN4CCOCC4)c3)ccnc2c1", "note": "[GYS32661]", "oral bioavailability": "not orally bioavailable"}]}, {"tested_on": "not given", "experiment": "not given", "settings": "in vivo; cited from earlier work", "values": [{"smiles": "FC(F)(F)c1ccc2c(SCCCCCCn3cnc(CN4CCOCC4)c3)ccnc2c1", "note": "[GYS32661]", "plasma half-life": "relatively short"}]}, {"target": "T1, Rac-GEF Tiam-1 with Rac1 (G15A) (Homo sapiens, UniProt P63000, G15A)", "T1 construct": "host or cells: MDA-MB-435", "experiment": "not given", "settings": "MDA-MB-435 cells; similar concentrations (<5 mM); cited from earlier work", "values": [{"smiles": "CCn1c2ccccc2c2cc(Nc3ccnc(NCCCN4CCOCC4)n3)ccc21", "note": "[EHop-016]", "association of the Rac-GEF Tiam-1 with Rac1 (G15A)": "does not affect"}]}, {"tested_on": "animal models of estrogen positive and HER2 positive breast cancer, prostate cancer, melanoma and colorectal cancer", "experiment": "not given", "settings": "single agent and in combination with standard of care; cited from earlier work", "values": [{"smiles": "FC(F)(F)c1ccc2c(SCCCCCCn3cnc(CN4CCOCC4)c3)ccnc2c1", "note": "[GYS32661]", "activity against animal models of cancer": "very good activity"}]}, {"tested_on": "not given", "experiment": "not given", "settings": "oral administration in mice; cited from earlier work", "values": [{"smiles": "CCn1c2ccccc2c2cc(Nc3ccnc(NCCCN4CCOCC4)n3)ccc21", "note": "[EHop-016]", "systemic exposure": "low systemic exposure"}]}, {"target": "T2, Rac1 (Homo sapiens, UniProt P63000)", "T2 construct": "His (N)", "experiment": "Rac Activation AlphaScreen Assay (Rac1 AS)", "type": "biochemical", "settings": "AlphaLisa assay; read-out: IC50 inhibitory concentration versus wild type Rac1", "experimental": "(§1) The IC50 values reported in Tables 1-6 were obtained from the Rae Activation AlphaScreen Assay (Rac1 AS) assay described in subsection 2 under the section entitled “In Vitro Assays”. “†” represents an IC50 of greater than 100 uM; “††” represents an IC50 of greater than 10 uM and less than 50 uM; and “†††” represents an IC50 of less than 10 uM. “POC” means percent of control. […] Lower POC values reflect greater inhibition. “NT” means not tested.\n(§2) 2. Rac Activation AlphaScreen Assay (Rac1 AS)\n(§3) AlphaScreen® assays were performed in 96-well microplates in a final reaction volume of 60 μL. Recombinant His-Rac1, recombinant GST-PBD (PAK Binding Domain), donor and acceptor beads (PerkinElmer), and inhibitors were incubated in exchange buffer (20 mM Tris pH 7.5, 50 mM NaCl, 1 mM MgCl2, 1 mM EDTA, 500 nM GTPyS (guanosine 5′-[Y-thio]triphosphate)) at 37° C. Readings were performed on a Tecan M1000 pro microplate reader after 1 hour. Data was analyzed using the GraphPad Prism software (GraphPad Software, Inc.), and IC50 (dose leading to 50% disruption of complex) was calculated from the dose-response curves.", "units": {"IC50": "µM"}, "values": [{"smiles": "CCn1c2ccccc2c2cc(Nc3ccnc(NCCCN4CCOCC4)n3)ccc21", "note": "[EHop-016]", "IC50": "~10"}]}, {"target": "T2, Rac1", "experiment": "Rac Activation AlphaScreen Assay (Rac1 AS)", "type": "biochemical", "settings": "Rac1 AS assay, dose leading to 50% disruption of complex; read-out: IC50", "experimental": "as §1, §2, §3", "units": {"IC50": "µM"}, "values": [{"smiles": "Cc1ccc(CS(=O)(=O)Nc2cccc(-c3ccc4nnc(-c5cccnc5)n4n3)c2)s1", "note": "[Compound 60]", "IC50": "< 10"}, {"smiles": "O=S(=O)(Cc1ccccc1F)Nc1cccc(-c2ccc3nnc(-c4cccnc4)n3n2)c1", "note": "[Compound 62]", "IC50": "< 10"}, {"smiles": "O=S(=O)(Cc1cccc(F)c1)Nc1cccc(-c2ccc3nnc(-c4cccnc4)n3n2)c1", "note": "[Compound 63]", "IC50": "< 10"}, {"smiles": "Cn1cc(CC(=O)Nc2cccc(-c3ccc4nnc(-c5cccnc5)n4n3)c2)c2ccccc21", "note": "[Compound 74]", "IC50": "< 10"}, {"smiles": "COc1cccc(C(=O)Nc2cccc(-c3ccc4nnc(-c5ccc(C)o5)n4n3)c2)c1", "note": "[Compound 79]", "IC50": "< 10"}, {"smiles": "Cc1ccc(-c2nnc3ccc(-c4cccc(NC(=O)c5ccc(F)cc5)c4)nn23)o1", "note": "[Compound 80, 4-fluoro-N-(3-(3-(5-methylfuran-2-yl)-[1,2,4]triazolo[4,3-b]pyridazin-6-yl)phenyl)benzamide]", "IC50": "< 10"}, {"smiles": "Cc1ccc(-c2nnc3ccc(-c4cccc(NC(=O)c5ccc(F)c(Cl)c5)c4)nn23)o1", "note": "[Compound 81, 3-chloro-4-fluoro-N-(3-(3-(5-methylfuran-2-yl)-[1,2,4]triazolo[4,3-b]pyridazin-6-yl)phenyl)benzamide]", "IC50": "< 10"}, {"smiles": "Cc1ccc(-c2nnc3ccc(-c4cccc(NC(=O)c5cccc(Cl)c5)c4)nn23)o1", "note": "[Compound 82, 3-chloro-N-(3-(3-(5-methylfuran-2-yl)-[1,2,4]triazolo[4,3-b]pyridazin-6-yl)phenyl)benzamide]", "IC50": "< 10"}, {"smiles": "Cc1ccc(-c2nnc3ccc(-c4cccc(NC(=O)c5cccc(Br)c5)c4)nn23)o1", "note": "[Compound 83]", "IC50": "< 10"}, {"smiles": "Cc1ccc(-c2nnc3ccc(-c4cccc(NC(=O)c5cccc(F)c5)c4)nn23)o1", "note": "[Compound 84]", "IC50": "< 10"}, {"smiles": "Cc1ccc(-c2nnc3ccc(-c4cccc(NC(=O)c5ccc(F)c(F)c5)c4)nn23)o1", "note": "[Compound 85]", "IC50": "< 10"}, {"smiles": "CSc1cc(C(=O)Nc2cccc(-c3ccc4nnc(-c5ccc(C)o5)n4n3)c2)ccc1F", "note": "[Compound 86]", "IC50": "< 10"}, {"smiles": "CCSc1cccc(C(=O)Nc2cccc(-c3ccc4nnc(-c5ccc(C)o5)n4n3)c2)c1", "note": "[Compound 87]", "IC50": "< 10"}, {"smiles": "Cc1ccc(-c2nnc3ccc(-c4cccc(NC(=O)c5cccc(SC(C)C)c5)c4)nn23)o1", "note": "[Compound 88, 3-(isopropylthio)-N-(3-(3-(5-methylfuran-2-yl)-[1,2,4]triazolo[4,3-b]pyridazin-6-yl)phenyl)benzamide]", "IC50": "< 10"}, {"smiles": "Cc1cccc(C(=O)Nc2cccc(-c3ccc4nnc(-c5ccc(C)o5)n4n3)c2)c1", "note": "[Compound 89]", "IC50": "< 10"}, {"smiles": "CCc1cccc(C(=O)Nc2cccc(-c3ccc4nnc(-c5ccc(C)o5)n4n3)c2)c1", "note": "[Compound 90, 3-ethyl-N-(3-(3-(5-methylfuran-2-yl)-[1,2,4]triazolo[4,3-b]pyridazin-6-yl)phenyl)benzamide]", "IC50": "< 10"}, {"smiles": "Cc1ccc(-c2nnc3ccc(-c4cccc(NC(=O)c5ccc(F)c(SC(C)C)c5)c4)nn23)o1", "note": "[Compound 91]", "IC50": "< 10"}, {"smiles": "Cc1ccc(-c2nnc3ccc(-c4cccc(NC(=O)c5ccc(F)c(C)c5)c4)nn23)o1", "note": "[Compound 92]", "IC50": "< 10"}, {"smiles": "CCc1cc(C(=O)Nc2cccc(-c3ccc4nnc(-c5ccc(C)o5)n4n3)c2)ccc1F", "note": "[Compound 93, 3-ethyl-4-fluoro-N-(3-(3-(5-methylfuran-2-yl)-[1,2,4]triazolo[4,3-b]pyridazin-6-yl)phenyl)benzamide]", "IC50": "< 10"}, {"smiles": "Cc1ccc(-c2nnc3ccc(-c4cccc(NC(=O)c5ccc(F)c(Br)c5)c4)nn23)o1", "note": "[Compound 94]", "IC50": "< 10"}, {"smiles": "COc1cccc(C(=O)Nc2cccc(-c3ccc4nnc(-c5cncs5)n4n3)c2)c1", "note": "[Compound 98]", "IC50": "< 10"}, {"smiles": "O=C(Nc1cccc(-c2ccc3nnc(-c4cncs4)n3n2)c1)c1ccc(F)cc1", "note": "[Compound 99, 4-fluoro-N-(3-(3-(thiazol-5-yl)-[1,2,4]triazolo[4,3-b]pyridazin-6-yl)phenyl)benzamide]", "IC50": "< 10"}, {"smiles": "Cc1ccc(-c2nnc3ccc(-c4cccc(NS(=O)(=O)Cc5ccc(F)cc5F)c4)nn23)o1", "note": "[Compound 106]", "IC50": "< 10"}, {"smiles": "COc1ccc(CS(=O)(=O)Nc2cccc(-c3ccc4nnc(-c5cccnc5)n4n3)c2)cc1", "note": "[Compound 107]", "IC50": "< 10"}, {"smiles": "COc1ccc(CS(=O)(=O)Nc2cccc(-c3ccc4nnc(-c5cccnc5)n4n3)c2)c(OC)c1", "note": "[Compound 108]", "IC50": "< 10"}, {"smiles": "Cc1ccc(-c2nnc3ccc(-c4cccc(NC(=O)c5cnco5)c4)nn23)o1", "note": "[Compound 109]", "IC50": "< 10"}, {"smiles": "Cc1ccc(-c2nnc3ccc(-c4cccc(NC(=O)c5ccc(F)c(CCC(C)C)c5)c4)nn23)o1", "note": "[Compound 110]", "IC50": "< 10"}, {"smiles": "Cc1ccc(-c2nnc3ccc(-c4cccc(NC(=O)c5cccc(SC(C)(C)C)c5)c4)nn23)o1", "note": "[Compound 111]", "IC50": "< 10"}]}, {"target": "T3, Rac-GEF Vav2 with nucleotide-free Rac1 (G15A) (Homo sapiens, UniProt P63000, G15A)", "T3 construct": "host or cells: MDA-MB-435", "experiment": "not given", "settings": "MDA-MB-435 breast cancer cells; <5 mM; cited from earlier work", "values": [{"smiles": "CCn1c2ccccc2c2cc(Nc3ccnc(NCCCN4CCOCC4)n3)ccc21", "note": "[EHop-016]", "association of the Rac-GEF Vav2 with nucleotide-free Rac1 (G15A)": "inhibits"}]}, {"target": "T4, Rac (Homo sapiens, UniProt P63000)", "T4 construct": "host or cells: fibroblasts", "experiment": "not given", "settings": "relative to NSC23766; cited from earlier work", "units": {"more efficient than NSC23766 as an inhibitor of Rac activity": "fold"}, "values": [{"smiles": "CCn1c2ccccc2c2cc(Nc3ccnc(NCCCN4CCOCC4)n3)ccc21", "note": "[EHop-016]", "more efficient than NSC23766 as an inhibitor of Rac activity": 100}]}]}
